In patent publication US12558338B2, “Pharmaceutical composition” (SUNSHINE LAKE PHARMA CO., LTD., priority 2019, dated 2026):

Experiment: Solubility in water
Format: physicochemical
Conditions: compared with memantine hydrochloride

solubility: almost insoluble in water
Compound: CC12CC3CC(C)(C1)CC(NC(=O)OCOC(=O)c1ccccc1)(C3)C2 [formula A, ((((1r,3R,5S,7r)-3,5-dimethyladamantan-1-yl)carbamoyl)oxy)methyl benzoate]
